Test systems include HOP-18; XF498; KM-20L2; DLD-1; DMS-273; LXFL 529; SNB-78; DMS-114; RXF 631.
Holding throughout (assay): NCI anticancer screen, dose series, 48 h

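Five compound concentrations were applied to cells in 96-well plates for 48 hours; endpoints were derived by simple linear interpolation of the resulting dose-response curve. Here, GI50 denotes the concentration required for 50% inhibition of growth.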 Active and inactive are the calls of the source. Cut-off read from the data, not from the text of the source: active = GI50 up to about 1.1 µM and inactive = higher. Bounds are passed on as bounds.

With `Cc1cc2c(s1)C(=O)c1sccc1C2=O`, the GI50 in the assay on HOP-18 is 1.48 µM (inactive); in the assay on XF498, 1.55 µM (inactive); in the assay on KM-20L2, 2.46 µM (inactive); in the assay on DLD-1, 1.64 µM (inactive); with DMS-273 it was 1.24 µM (inactive); with LXFL 529 it was 1.19 µM (inactive).
As to `Cc1ccc(S(=O)(=O)c2c(N)n(CCN(C)C)c3nc4ccccc4nc23)cc1`, the GI50 in the assay on SNB-78, in the assay on HOP-18, in the assay on XF498, with DLD-1, with DMS-273 and in the assay on LXFL 529 was > 100 µM (inactive) in each case. Also, the GI50 with DMS-114 was > 100 µM (inactive).
Consider `OCC(O)C(OC1OC(CO)C(O)C(O)C1O)c1nn(-c2ccccc2)c2nc3cc(Cl)ccc3nc12` (configuration not stated), for which the GI50 with SNB-78, in the assay with XF498, in the assay with KM-20L2, with DLD-1, with LXFL 529 and with DMS-114 was > 100 µM (inactive) in each case.
Regarding `COC(=O)C(CCC#N)(CCC#N)C(=O)OC`, the GI50 in the assay with XF498, in the assay with KM-20L2, in the assay on DMS-273, in the assay on LXFL 529 and in the assay with DMS-114 was > 100 µM (inactive) in each case.
`COc1cc2c(c(OC)c1O)-c1ccc(SC)c(=O)cc1C(NC(C)=O)CC2` (configuration not stated): the GI50 in the assay with SNB-78 was < 0.01 µM (active); in the assay on KM-20L2, 0.0129 µM (active); in the assay with DLD-1, 0.0597 µM (active); with DMS-273, < 0.01 µM (active); with LXFL 529, < 0.01 µM (active); in the assay on DMS-114, < 0.01 µM (active).
For `O=C(CCN1CCC(CCO)CC1)Nc1ccc2c(c1)C(=O)c1ccc(NC(=O)CCN3CCC(CCO)CC3)cc1C2=O`, the GI50 in the assay on SNB-78 was 3.43 µM (inactive); in the assay on HOP-18, 25.5 µM (inactive); in the assay with KM-20L2, 27.9 µM (inactive); in the assay with DLD-1, 10.4 µM (inactive); in the assay on DMS-273, 6.81 µM (inactive); in the assay with LXFL 529, 5.25 µM (inactive). For the same compound, the GI50 with DMS-114 was 6.53 µM (inactive).
`CC(=O)O[C@H]1C(N(C)C(=O)c2ccccc2)CC[C@]2(C)C3CC[C@@]4(C)C(CC(O)[C@@H]4C(C)N(C)C)[C@@H]3CCC12` (some centres not stated): the GI50 in the assay on SNB-78, in the assay with HOP-18, in the assay on XF498, with KM-20L2, in the assay on DLD-1 and in the assay on DMS-273 was > 100 µM (inactive) throughout. Also, the GI50 in the assay on LXFL 529 and in the assay on DMS-114 was > 100 µM (inactive) in each case.
Take `O=c1oc(=O)c2oc3ccccc3oc1=2`: the GI50 with HOP-18, in the assay with XF498, in the assay with KM-20L2, in the assay on DLD-1, with DMS-273 and in the assay on LXFL 529 was > 100 µM (inactive) in each case. The GI50 with DMS-114 is > 100 µM (inactive).
`c1cnc2c(c1)-n1cccc1C1(CCCCC1)NN2`: the GI50 in the assay with HOP-18 was 8.18 µM (inactive); with XF498, 74.3 µM (inactive); with DMS-273, 46.5 µM (inactive); in the assay on DMS-114 it was 53.1 µM (inactive).
For `O=C(Nc1cccc(C(F)(F)F)c1)C(=O)C(C(=O)c1ccc2ccccc2c1)C1OC(=O)c2ccccc21` (configuration not stated), the GI50 in the assay on SNB-78 was 7.45 µM (inactive); in the assay with XF498, 0.887 µM (active); in the assay with KM-20L2 it was 15.8 µM (inactive); with DLD-1, 6.35 µM (inactive); in the assay with DMS-273, 6.3 µM (inactive); in the assay with LXFL 529, 4.82 µM (inactive). For the same compound, the GI50 in the assay with DMS-114 was 6.89 µM (inactive).
`CN1C(=O)N(C)C2(O)c3ccccc3C(=O)C12O` (configuration not stated): the GI50 with SNB-78, with HOP-18, in the assay with RXF 631, in the assay on KM-20L2, in the assay with DLD-1 and in the assay on DMS-273 was > 100 µM (inactive) throughout. For the same compound, the GI50 in the assay with LXFL 529 and in the assay on DMS-114 was > 100 µM (inactive) in each case.
In the case of `C[C@@H]1[C@@H]2[C@@H](C=C3C4CCC5Cc6nc7c(nc6C[C@@]5(C)C4C[C@H](O)[C@]32CO)CC2CCC3C4=C[C@H]5O[C@@]6(OC(C)(CO)C[C@@H]6O)[C@H](C)[C@@]5(O)[C@]4(C)[C@@H](O)CC3[C@]2(C)C7)O[C@]12CCC(C)(C)O2` (some centres not stated), the GI50 is 0.00486 µM (active) in the assay with SNB-78; 0.401 µM (active) in the assay on HOP-18; 0.00507 µM (active) in the assay with XF498; 0.0233 µM (active) in the assay on KM-20L2; 0.822 µM (active) in the assay on DLD-1; 0.000826 µM (active) in the assay on DMS-273. The GI50 in the assay on LXFL 529 was 0.0118 µM (active).
On to `N#CCCn1c(S)nnc1CCC(=O)Nc1ccc(Cl)cc1Cl`, for which the GI50 with SNB-78, in the assay with XF498, with RXF 631, with KM-20L2, in the assay on DLD-1 and in the assay on DMS-273 was > 100 µM (inactive) each time. Further, the GI50 in the assay on LXFL 529 and with DMS-114 was > 100 µM (inactive) each time.
Regarding `OCC(O)COc1c(Cl)ccc(Cl)c1Cl` (configuration not stated), the GI50 with SNB-78, with HOP-18, in the assay with XF498, in the assay with KM-20L2, in the assay on DLD-1 and with DMS-273 was > 100 µM (inactive) throughout. The GI50 in the assay on LXFL 529 and with DMS-114 was > 100 µM (inactive) in each case.
Turning to `CCN(CC)CCn1c2ccccc2c(=O)c2c(O)ccc(O)c21`, the GI50 was 23.4 µM (inactive) with SNB-78; 21.6 µM (inactive) in the assay on XF498; > 45.7 µM (inactive) in the assay on RXF 631; > 100 µM (inactive) in the assay on KM-20L2; 99.1 µM (inactive) with DMS-273; 19.9 µM (inactive) in the assay with LXFL 529. Besides, in the assay with DMS-114, the GI50 is 18.5 µM (inactive).
With `Cc1ccc(-c2cc(-c3ccco3)c(C#N)c(O)n2)cc1`, the GI50 with SNB-78 was > 100 µM (inactive); in the assay on HOP-18 it was 13.3 µM (inactive); in the assay with KM-20L2, > 100 µM (inactive); with DLD-1, > 100 µM (inactive); in the assay on DMS-273, > 100 µM (inactive); in the assay on LXFL 529, > 100 µM (inactive).
As for `COC(=O)C(=O)C(C(=O)C=C(C)C)C(=O)C(=O)Nc1nc2ccc([N+](=O)[O-])cc2s1` (configuration not stated), the GI50 in the assay with SNB-78 is 58.2 µM (inactive); with HOP-18, 4.51 µM (inactive); with KM-20L2, > 100 µM (inactive); in the assay with DLD-1 it was 51.8 µM (inactive); in the assay with DMS-273, 47.6 µM (inactive); with LXFL 529, 83.4 µM (inactive). Further, the GI50 with DMS-114 is 31.4 µM (inactive).
As for `OCCCNc1ccnc2cc(Cl)ccc12`, the GI50 in the assay on SNB-78, in the assay with HOP-18, in the assay with XF498, in the assay with KM-20L2, in the assay on DLD-1 and in the assay on LXFL 529 was > 100 µM (inactive) each time. Also, the GI50 in the assay on DMS-114 was > 100 µM (inactive).
Take `CC(=O)Nc1ccc(/C=C/C(=O)c2sc(C(N)=S)nc2C)cc1`: the GI50 in the assay with SNB-78, in the assay with HOP-18, with KM-20L2, in the assay on DLD-1, with DMS-273 and in the assay on DMS-114 was > 100 µM (inactive) throughout.

Values taken from ChEMBL document CHEMBL1201862, “PubChem BioAssay data set” (2004).
